# Test results from US20090203709A1, “Pharmaceutical Dosage Form For Oral Administration Of Tyrosine Kinase Inhibitor” (ABBOTT LABORATORIES, priority 2008, published 2009).
# Entries after “also recorded” stand apart in the source; their conditions may differ. Where two headings read alike, the source gives them in different places.
# How the values were obtained:
# [1] = test system: non-hematologic malignancy; assay: Efficacy in study M04-710; assay type: in vivo, human
# Experimental: Study M04-710 and M05-756 are ongoing, open-label, multiple-dose escalation trials with ABT-869 administered daily for 21 consecutive days, with dose escalation scheduled in cohorts of 3 subjects. […] In both studies dosing was initiated at 10 mg QD, with subjects self-administering ABT-869 orally (admixed with approximately 60 mL of Ensure Plus or an approved alternative) at bedtime. Food was not allowed 2 h before or after dosing.
# ECOG score of 0-2 in study of non-hematologic malignancies or 0-3 in AML/MDS study.
# [2] = Study M04-710 pharmacokinetics, multiple-dose escalation, non-hematologic malignancies; assay type: in vivo, human; conditions: for AUC∞/D / Cmax/D / AUC0-24/D / Cmax / Tmax / AUC(0-t) / AUC(0-inf) / clearance / half-life: mean ± SD; for Cmax / Tmax / AUC(0-t) / AUC(0-inf) / clearance / half-life: human, plasma; for AUC(0-t): read-out: AUC0-24
# Experimental: In study M04-710, blood samples for pharmacokinetic analysis were collected on Days 1 and 15 at the following times: 0 (pre-dose), 0.5, 1, 2, 3, 4, 6, 8, and 24 h (Day 1 only).
# In study M05-756, blood samples for pharmacokinetic analysis were collected on Days 1 and 8 at the following times: 0 (pre-dose), 0.5, 1, 2, 3, 4, 6, 8, and 24 h (Day 1 only). Urine was collected for the 24 hour period following dosing on Day 13 through bedtime on Day 14 (non-hematologic malignancy study) and following dosing after Day 6 and through bedtime on Day 7 (AML/MDS study). Plasma and urine concentrations of ABT-869 were determined under the supervision of the Drug Analysis Department at Abbott using LCMS/MS. PK parameters were determined by noncompartmental analysis using WinNonlin Professional Version 5.0.1.
# [3] = Safety in study M05-756 (AML/MDS; adverse events, DLTs)
# Experimental: Food was not allowed 2 h before or after dosing.
# The following safety evaluations were performed during the studies: adverse event monitoring, vital signs, ECGs, physical examination and laboratory tests assessments.
# [4] = Study Day 1, 10 mg (~0.20 mg/kg)
# [5] = Study Day 15, 10 mg (~0.20 mg/kg)
# [6] = oral, 0.1 mg/kg, Study Day 15, 0.10 mg/kg
# [7] = oral, 0.1 mg/kg, Study Day 1, 0.10 mg/kg
# [8] = oral, 0.25 mg/kg, Study Day 1, 0.25 mg/kg
# [9] = oral, 0.25 mg/kg, Study Day 15, 0.25 mg/kg
# [10] = oral, 0.3 mg/kg, Study Day 15, 0.30 mg/kg
# [11] = oral, 0.3 mg/kg, Study Day 1, 0.30 mg/kg
# [12] = oral, 10 mg, Study Day 1, 10 mg (~0.20 mg/kg)
# [13] = oral, 10 mg, Study Day 15, 10 mg (~0.20 mg/kg)
# [14] = oral, Study Day 1, 10 mg (~0.20 mg/kg)
# [15] = all cycles, N = 10, highest grade per subject
smiles,measurement,setting,value
"Cc1ccc(F)c(NC(=O)Nc2ccc(-c3cccc4[nH]nc(N)c34)cc2)c1 [ABT-869, N-[4-(3-amino-1H-indazol-4-yl)phenyl]-N′-(2-fluoro-5-methylphenyl)urea]",change in tumor size,"[1]; NSCLC, CRC, neuroendocrine tumor, HCC, RCC soft tissue sarcoma and ovarian carcinoma",Reductions in tumor size observed
same,NSCLC patients with partial remission / partial response,[1]; study M04-710,2 (9%) patients (%)
same,patients with SD for >1 year with no accumulation of toxicity,[1]; study M04-710,4 patients
same,patients with SD for ≧6 months,[1]; study M04-710,6 (22%) patients (%)
same,patients with stable disease (SD) for ≧3 months (4 treatment periods),[1]; study M04-710,15 (56%) patients (%)
same,dose proportionality and time dependence of PK,"[2]; 0.10 to 0.30 mg/kg QD, oral","dose-proportional and time-invariant; also recorded: approximately dose-proportional (0.10-0.30 mg/kg QD, oral) and time independent with minimal accumulation at day 15"
same,dose recovered in the urine as unchanged ABT-869,"[2]; 24 hour urine, N=4",~4%
same,AUC∞/D,"[2]; Study Day 1, 0.10 mg/kg",0.51 ± 0.21 µg·h/mL/mg
same,Cmax/D,"[2]; Study Day 1, 0.10 mg/kg",0.020 ± 0.007 µg/mL/mg
same,AUC∞/D,"[2]; Study Day 1, 0.25 mg/kg",0.41 ± 0.19 µg·h/mL/mg
same,Cmax/D,"[2]; Study Day 1, 0.25 mg/kg",0.019 ± 0.006 µg/mL/mg
same,AUC∞/D,"[2]; Study Day 1, 0.30 mg/kg",0.47 ± 0.19 µg·h/mL/mg
same,Cmax/D,"[2]; Study Day 1, 0.30 mg/kg",0.020 ± 0.008 µg/mL/mg
same,AUC∞/D,[2]; [4],0.41 ± 0.22 µg·h/mL/mg
same,Cmax/D,[2]; [4],0.021 ± 0.012 µg/mL/mg
same,AUC0-24/D,"[2]; Study Day 15, 0.10 mg/kg",0.35 ± 0.15 µg·h/mL/mg
same,Cmax/D,"[2]; Study Day 15, 0.10 mg/kg",0.024 ± 0.008 µg/mL/mg
same,AUC0-24/D,"[2]; Study Day 15, 0.25 mg/kg",0.30 ± 0.08 µg·h/mL/mg
same,Cmax/D,"[2]; Study Day 15, 0.25 mg/kg",0.022 ± 0.006 µg/mL/mg
same,AUC0-24/D,"[2]; Study Day 15, 0.30 mg/kg",0.30 ± 0.07 µg·h/mL/mg
same,Cmax/D,"[2]; Study Day 15, 0.30 mg/kg",0.022 ± 0.008 µg/mL/mg
same,AUC0-24/D,[2]; [5],0.35 ± 0.20 µg·h/mL/mg
same,Cmax/D,[2]; [5],0.026 ± 0.019 µg/mL/mg
same,Cmax,[2]; [6],140 ± 50 ng/mL
same,Tmax,[2]; [6],3.7 ± 1.5 h
same,AUC(0-t),[2]; [6],2100 ± 900 ng·h/mL
same,AUC(0-inf),[2]; [7],3100 ± 1400 ng·h/mL
same,Cmax,[2]; [7],120 ± 50 ng/mL
same,Tmax,[2]; [7],3.5 ± 1.5 h
same,clearance,[2]; [7],38.3 mL/min
same,half-life,[2]; [7],19 ± 5.6 h
same,Cmax,[2]; [8],260 ± 90 ng/mL
same,Tmax,[2]; [8],2.7 ± 0.8 h
same,Cmax,[2]; [9],310 ± 120 ng/mL
same,Tmax,[2]; [9],3.5 ± 1 h
same,Cmax,[2]; [10],390 ± 170 ng/mL
same,Tmax,[2]; [10],3.3 ± 0.6 h
same,AUC(0-t),[2]; [10],5300 ± 1500 ng·h/mL
same,AUC(0-inf),[2]; [11],7900 ± 2000 ng·h/mL
same,Cmax,[2]; [11],340 ± 90 ng/mL
same,Tmax,[2]; [11],2 h
same,clearance,[2]; [11],40 mL/min
same,half-life,[2]; [11],22 ± 2.4 h
same,Cmax,[2]; [12],210 ± 120 ng/mL
same,Tmax,[2]; [12],3.3 ± 1.5 h
same,Cmax,[2]; [13],220 ± 170 ng/mL
same,Tmax,[2]; [13],3 h
same,AUC(0-inf),"[2]; oral, Study Day 1, 0.25 mg/kg",5800 ± 2900 ng·h/mL
same,clearance,"[2]; oral, Study Day 1, 0.25 mg/kg",50 mL/min
same,half-life,"[2]; oral, Study Day 1, 0.25 mg/kg",18.9 ± 6.2 h
same,AUC(0-inf),[2]; [14],4100 ± 2200 ng·h/mL
same,clearance,[2]; [14],50 mL/min
same,half-life,[2]; [14],14.4 ± 4.6 h
same,AUC(0-t),"[2]; oral, Study Day 15, 0.25 mg/kg",4300 ± 2100 ng·h/mL
same,AUC(0-t),"[2]; oral, Study Day 15, 10 mg (~0.20 mg/kg)",3000 ± 1500 ng·h/mL
same,Dose limiting fatigue,[3]; 20 mg/body cohort,3 patients
same,"Alopecia, Overall","[3]; all cycles, N = 10",2 (20.0) n (%)
same,"Anorexia, Overall","[3]; all cycles, N = 10",2 (20.0) n (%)
same,"Asthenia, Overall","[3]; all cycles, N = 10",3 (30.0) n (%)
same,"Constipation, Overall","[3]; all cycles, N = 10",2 (20.0) n (%)
same,"Cough, Overall","[3]; all cycles, N = 10",3 (30.0) n (%)
same,"Diarrhoea, Overall","[3]; all cycles, N = 10",4 (40.0) n (%)
same,"Fatigue, Overall","[3]; all cycles, N = 10",2 (20.0) n (%)
same,"Febrile Neutropenia, Overall","[3]; all cycles, N = 10",3 (30.0) n (%)
same,"Haematuria, Overall","[3]; all cycles, N = 10",2 (20.0) n (%)
same,"Hypocalcaemia, Overall","[3]; all cycles, N = 10",2 (20.0) n (%)
same,"Hypokalaemia, Overall","[3]; all cycles, N = 10",2 (20.0) n (%)
same,"Myalgia, Overall","[3]; all cycles, N = 10",2 (20.0) n (%)
same,"Nausea, Overall","[3]; all cycles, N = 10",2 (20.0) n (%)
same,"Palmar-plantar erythrodysaesthesia syndrome, Overall","[3]; all cycles, N = 10",2 (20.0) n (%)
same,"Pyrexia, Overall","[3]; all cycles, N = 10",3 (30.0) n (%)
same,"Alopecia, Grade 1",[3]; [15],0 n
same,"Alopecia, Grade 2",[3]; [15],2 n
same,"Alopecia, Grade 3/4",[3]; [15],0 n
same,"Anorexia, Grade 1",[3]; [15],2 n
same,"Anorexia, Grade 2",[3]; [15],0 n
same,"Anorexia, Grade 3/4",[3]; [15],0 n
same,"Asthenia, Grade 1",[3]; [15],1 n
same,"Asthenia, Grade 2",[3]; [15],0 n
same,"Asthenia, Grade 3/4",[3]; [15],2 n
same,"Constipation, Grade 1",[3]; [15],2 n
same,"Constipation, Grade 2",[3]; [15],0 n
same,"Constipation, Grade 3/4",[3]; [15],0 n
same,"Cough, Grade 1",[3]; [15],3 n
same,"Cough, Grade 2",[3]; [15],0 n
same,"Cough, Grade 3/4",[3]; [15],0 n
same,"Diarrhoea, Grade 1",[3]; [15],2 n
same,"Diarrhoea, Grade 2",[3]; [15],1 n
same,"Diarrhoea, Grade 3/4",[3]; [15],1 n
same,"Fatigue, Grade 1",[3]; [15],1 n
same,"Fatigue, Grade 2",[3]; [15],1 n
same,"Fatigue, Grade 3/4",[3]; [15],0 n
same,"Febrile Neutropenia, Grade 1",[3]; [15],0 n
same,"Febrile Neutropenia, Grade 2",[3]; [15],0 n
same,"Febrile Neutropenia, Grade 3/4",[3]; [15],3 n
same,"Haematuria, Grade 1",[3]; [15],1 n
same,"Haematuria, Grade 2",[3]; [15],1 n
same,"Haematuria, Grade 3/4",[3]; [15],0 n
same,"Hypocalcaemia, Grade 1",[3]; [15],2 n
same,"Hypocalcaemia, Grade 2",[3]; [15],0 n
same,"Hypocalcaemia, Grade 3/4",[3]; [15],0 n
same,"Hypokalaemia, Grade 1",[3]; [15],2 n
same,"Hypokalaemia, Grade 2",[3]; [15],0 n
same,"Hypokalaemia, Grade 3/4",[3]; [15],0 n
same,"Myalgia, Grade 1",[3]; [15],1 n
same,"Myalgia, Grade 2",[3]; [15],0 n
same,"Myalgia, Grade 3/4",[3]; [15],1 n
same,"Nausea, Grade 1",[3]; [15],2 n
same,"Nausea, Grade 2",[3]; [15],0 n
same,"Nausea, Grade 3/4",[3]; [15],0 n
same,"Palmar-plantar erythrodysaesthesia syndrome, Grade 1",[3]; [15],2 n
same,"Palmar-plantar erythrodysaesthesia syndrome, Grade 2",[3]; [15],0 n
same,"Palmar-plantar erythrodysaesthesia syndrome, Grade 3/4",[3]; [15],0 n
same,"Pyrexia, Grade 1",[3]; [15],1 n
same,"Pyrexia, Grade 2",[3]; [15],1 n
same,"Pyrexia, Grade 3/4",[3]; [15],1 n
same,dose-limiting toxicities,[3]; study M05-756,fatigue is dose-limiting
same,reversibility of toxicities,[3]; study M05-756,"treatable, or reversible with ABT-869 interruption"
